A short description of one series: Cytotoxicity, MTT assay. As to conditions: human.
The nature of series [1]: Cytotoxicity, ATP luminescence (Cell Titer Glow) assay. The note with it: human.
Procedure: (§1) To measure cytotoxicity, HeLa-derived TZM-bl cells , were treated with serial dilutions of each drug, and viability was assessed after 48 h. Two methods were used: an ATP luminescence assay, which measures cellular ATP levels as an indicator of metabolic activity (compounds 8a–d), and an MTT assay, which evaluates cell viability via mitochondrial enzymatic activity (compounds 15b, 21a, and 21b).
(§2) The TZM-bl cell line (BEI Resources, ARP-8129) was used to evaluate both cell viability and HIV pseudovirus infectivity reduction. Cytotoxicity in this cell line was measured via two methods. The first method, an ATP luminescence assay, was used for compounds 15a, 15b, 21a, and 21b as such: 6000 TZM-bl cells per well were seeded in a 96-well plate and incubated at 37 °C with 5% CO2 for 24 h. Compounds were prepared as serial dilutions (final concentrations of 1, 0.2, 0.04, 0.008, and 0.0016 μM) in complete DMEM with DEAE-Dextran at 40 μg/mL to mimic HIV infectivity conditions. Solutions were added to the cells and incubated for another 48 h. Viability was assessed using the Promega Cell Titer Glow (CTG) Assay (cat No. G9242) by adding a 50% PBS-CTG solution to each well and measuring luminescence, which correlates with ATP levels, on an Agilent BioTek Synergy HT reader. Cytotoxicity of compounds 8a–d was determined using a colorimetric assay based the conversion of MTT (3-(4,5-dimethylthiazol-2-yl)-2,5-diphenyltetrazolium bromide) to formazan as described previously. TZM-bl cells were plated into 96-well tissue culture plates 1 day prior to performing the MTT assay. A series of 10 3-fold dilutions of each compound was performed from a starting concentration of 10 mM and each dilution was tested for a reduction in cell viability according to the manufacturer’s instructions (CyQuant MTT Cell Viability Assay, ThermoFisher, V13154). Wells containing TZM-bl cells with media only were used as a control. Briefly, serial dilutions of each test compound were added to the plated TZM-bl cells. At 48 h, the media was removed and replaced with 100 mL of fresh culture medium. 10 mL of 12 mM MTT solution was added to each well and incubated at 37 °C for 4 h. 85 mL of supernatant was then removed from each well and replaced with 50 mL of DMSO. Following a 10 min incubation at 37 °C, the absorbance of each well was determined at 540 nm using a Biotek Synergy Neo2 multimode reader and Gen5 v3.02 software.
Another series deals with Caco-2 cell-derived CMs. The class given is in vitro ADME, human. The note with it: for CM concentration relative to ω-unmodified BOG prodrug (21a vs 8a, 21b vs 8b) / increase in CM concentration compared to TXL: 20 h. The protocol: [formula] 1 Chylomicron (CM) Isolation and Drug Quantification Methods ^a a (1) Caco-2 cells were grown to confluence. (2) Lipid mix was added to media (final drug concentration of 10 μM), and cells were incubated for 4 h. (3) Cells were washed 3× with PBS. (4) Cells were incubated in fresh media overnight. (5) CM-containing media was collected. (6) Media was combined with a 1.20 g/mL NaCl solution in an ultracentrifugation tube, 500 μL H2O was carefully layered on top, and the mixture was centrifuged at 10,950 RCF for 3 h. (7) The CM-containing upper layer was carefully isolated with a fine-tip pipette. (8) Test drug was then extracted from the CM layer with 70% ACN and quantified using LC-MS/MS.
With the presence of CMs in isolated Caco-2 cell extracts confirmed and reproducibility validated across replicates and different drugs, we were eager to investigate drug incorporation during CM biogenesis in vitro. Accordingly, we added test compound (Figure ) to differentiated Caco-2 cells along with the lipid mix to a final test drug concentration of 10 μM. While 10 μM was selected as a standard concentration for these studies, higher concentrations could allow detection of other compounds with low CM association in future experiments. In either case, CMs secreted by Caco-2 cells can be isolated postincubation, and drug concentrations within CMs can be assessed using highly sensitive LC-MS/MS methodology. Positive (high c Log D) and negative (low c Log D) control compounds were selected to validate this assay. […] Given these properties, we expected CAB to readily package into CMs in vitro. […]. […] This sets the stage for quantitative comparisons of TXL and its functionalized analogs, which are detailed below.
At 14-days postconfluence, Caco-2 cells were incubated in a lipid mixture to induce secretion of CMs. For the lipid solution, oleic acid (50 mg), lecithin (40 mg), and sodium taurocholate (48 mg) were weighted out into an Eppendorf tube, and the volume was brought up to 900 μL with PBS, followed by vigorous vortexing to ensure sample homogeneity. This 100× lipid mixture was then diluted into growth media to achieve the desired concentrations (2 mM oleic acid, 1.36 mM lecithin, 1 mM sodium taurocholate) by adding 500 μL of the lipid mixture to 49.5 mL of media. The lipid-supplemented media was thoroughly mixed and sterilized by filtration using a 250 mL sterile vacuum filter. For the drug-exposed CM experiments, each test compound was dissolved in 2 mM human serum albumin (HAS, Sigma, essentially fatty acid free) in DPBS, then added to 10 mL aliquots of lipid-containing media to achieve a final concentration of 10 μM. Subsequently, lipid-containing media was added to Caco-2 cells and incubated for 4 h at 37 °C. After incubation, cells were washed twice with PBS then incubated for 4, 8, or 20 h at 37 °C in fresh, colorless growth medium. Media was collected into 15 mL falcon tubes and centrifuged at 2000g to remove cell debris. Postcentrifugation, the supernatant was transferred to 50 mL Nalgene Oak Ridge High-Speed PPCO Centrifuge Tubes. Next, to adjust the density for ultracentrifugation, 1.19 g of NaCl in 2 mL of deionized (DI) H2O were added to reach a final volume of 5 mL, corresponding to a density of 1.20 g/mL. This mixture was dissolved by vortexing and balanced by weight. 500 μL of DI H2O was carefully overlaid onto the mixture. Ultracentrifugation was performed for 2 h and 30 min at 10,920 relative centrifugal force (RCF). Immediately after centrifugation, the top 500 μL layer, containing CMs, was carefully collected using a gel-loading pipet tip.
To an aliquot of CM extract was added an equal volume of ACN into 1.5 mL Eppendorf tubes. Tubes were shaken for 1 h at rt then centrifuged at 15,000 RCF to remove debris. The clear supernatant was transferred to a glass vial and concentrated under reduced pressure to yield a dry solid. Sample was then reconstituted in 70% ACN in H2O, filtered and then analyzed. […]

The subject of a further series is Caco-2 cells. Kind of series: Control: release of membrane-associated prodrug into media after wash. Type of series: in vitro ADME, human. The note with it: 10 μM, 15 min at 37 °C, media at 0, 5 and 15 min postwash. The protocol:
After characterizing the impact of membrane dynamics on the packaging of ω-unfunctionalized prodrugs into CMs, we proceeded to screen the ω-CF3-functionalized BOG lipid prodrugs in our CM assay. All collections were done at the 20 h time point to allow full diffusion of prodrug out of the membrane. […] However, CM concentration strongly correlated with c Log D values (R ^2 = 0.89, Figure c), consistent with trends observed for ω-unfunctionalized prodrugs and highlighting the role of lipophilicity on CM incorporation. […] This is further supported by the 2.4-fold increase in CM concentration observed for 15a compared to TXL, where the only difference is the inclusion of the terminal CF3 group. […] Therefore, as an important control experiment, Caco-2 cells were incubated with 10 μM of TXL or compound 21a (n = 6 per group) in the presence of the lipid mixture for 15 min at 37 °C. After incubation, the cells were washed three times with PBS, and fresh drug-free growth media was added. Aliquots of the media were collected at 0, 5, and 15 min postwash. Samples were analyzed by LC-MS/MS for the presence of TXL and 21a.

Procedure for Cytotoxicity, MTT assay: as §1, §2

In general, CC50 refers to the concentration at which the toxic effect on the cells reaches its halfway point. Low values mean greater toxicity to the cells, high ones lower toxicity to the cells. Consider `CCCCCCCCCCCCCCCCOCCCOP(=O)(O)CO[C@H](C)Cn1cnc2c(N)ncnc21` [TXL, hexadecyloxypropyl (HDP)-TFV, reference compound], for which the CC50 at 48 h in “Cytotoxicity, MTT assay” was greater than 10000 nM; in series [1] it was greater than 1000 nM. Further, the “detection of compound in CM extract by LC-MS/MS” value with Caco-2 cell-derived CMs (10 μM test drug, Caco-2 cells) is given as “successfully detected in CM isolates”. The “concentration in CMs compared with BOG prodrugs” value with Caco-2 cell-derived CMs (8 h, 10 μM) was “significantly greater concentrations in CMs than all BOG substituted prodrugs”. In addition, the “prodrug concentration in media postwash” value in the series on Caco-2 cells was “below the limit of detection”.

For the compound `C[C@H](Cn1cnc2c(N)ncnc21)OCP(=O)(O)OC[C@H](COCCCCCCCCCCCCCCCCCC(F)(F)F)OCc1ccccc1` [21b, Ammonium[(1R)-2-(6-aminopurin-9-yl)-1-methyl-ethoxy]methyl-[(2S)-2-benzyloxy-3-(18,18,18-trifluorooctadecoxy)propoxy]phosphinate], the cytotoxic concentration (CC50) at 48 h in series [1] (TZM-bl cells) was greater than 1000 nM. In the series on Caco-2 cell-derived CMs (10 μM), the “CM concentration relative to ω-unmodified BOG prodrug (21a vs 8a, 21b vs 8b)” value is recorded as roughly 1.6 fold and the “increase in CM concentration compared to TXL” value (from here on “increase in CM concentration”) is 3.8 fold.

In turn, `C[C@H](Cn1cnc2c(N)ncnc21)OCP(=O)(O)OC[C@H](COCCCCCCCCCCCCCCCC(F)(F)F)OCc1ccccc1` [21a, Ammonium[(1R)-2-(6-Aminopurin-9-yl)-1-methyl-ethoxy]methyl-[(2S)-2-benzyloxy-3-(16,16,16-trifluorohexadecoxy)propoxy]phosphinate] gave a CC50 at 48 h in series [1] (TZM-bl cells) greater than 1000 nM. Further, in the series with Caco-2 cell-derived CMs (10 μM), the “CM concentration relative to ω-unmodified BOG prodrug (21a vs 8a, 21b vs 8b)” value was “approximately 1.8 fold” and the “increase in CM concentration” value amounted to 3.3 fold. In the series with Caco-2 cells, the “prodrug concentration in media postwash” value was “below the limit of detection”.

`C[C@H](Cn1cnc2c(N)ncnc21)OCP(=O)(O)OCCCOCCCCCCCCCCCCCCCC(F)(F)F` [15a, Ammonium[(1R)-2-(6-aminopurin-9-yl)-1-methyl-ethoxy]methyl-[3-(16,16,16-trifluorohexadecoxy)propoxy]phosphinate]: the CC50 at 48 h in “Cytotoxicity, MTT assay” is greater than 10000 nM; in series [1], greater than 1000 nM. For the same compound, in the series with Caco-2 cell-derived CMs (10 μM), the “increase in CM concentration” value came to 2.4 fold.
